The text below walks through data of PMC8879702, “Discovery of Small Molecule Activators of Chemokine Receptor CXCR4 That Improve Diabetic Wound Healing” (International Journal of Molecular Sciences, 2022).

In experiment [1] the test system is diabetic wounds in Db mice. Put plainly: full-thickness excisional 8 mm wound healing in diabetic Db mice. The experiment is classed as in vivo. The method, then:
We examined the ability of our lead compound to improve diabetic wound healing in vivo. Full-thickness excisional 8 mm wounds were created in Db mice and were immediately treated with 10 µM UCUF-728 or PBS control. We monitored wound healing over the course of 22 days. Initial wound size was calculated immediately after wounding, and wound closure was assessed over time as the percentage of initial wound area. Figure 4A depicts the wound healing effect of UCUF-728 application on the excision wound model for sequential days following injury. […] The effect of UCUF-728 treatment on angiogenesis was assessed using immunohistochemistry for the endothelial marker CD31. Representative photos of immunoperoxidase staining for CD31 at 7 days in diabetic wounds treated with PBS or UCUF-728 are shown in Figure 4C.
All animal experiments were approved by the Institutional Animal Care and Use Committee at the University of Colorado Denver—Anschutz Medical Campus, and experimental protocols followed the guidelines described in the NIH Guide for the Care and Use of Laboratory Animals. In these experiments, we used 10-week-old, female, genetically diabetic C57BKS.Cg-m/Leprdb/J (Db) mice and heterozygous, non-diabetic (non-Db), age-matched female controls from the Jackson Laboratory (Bar Harbor, ME, USA). Mice were anesthetized with inhaled isoflurane. Each mouse was shaved and depilated before wounding. The dorsal skin was swabbed with alcohol and Betadine (Purdue Pharma, Stamford, CT, USA). Each mouse received a single, full-thickness dorsal wound (including panniculus carnosum) with an 8-mm punch biopsy (Miltex Inc., York, PA, USA). After wounding, a Hamilton syringe was used to deliver 50 μL of either 10 uM CAG1 or PBS, as a control. Ten […] were injected intradermally at 12, 3, 6 and 9 o’clock and at the wound base. All wounds were dressed with Tegaderm (3M, St. Paul, MN, USA), which was subsequently removed on postoperative day 2. Postoperatively, the mice received a subcutaneous injection of an analgesic, Banamine (Schering-Plough Animal Health Corp., Union, NJ, USA). A full-thickness skin sample, centered on the wound, was harvested 3 and 7 days after surgery (n = 5 per timepoint).

The next experiment has as its target CXCR4 receptor (Homo sapiens, UniProt P61073). Put plainly: primary 1536 w β-arrestin recruitment assay (CXCR4-bla U2OS cells, SDF-1α from R&D systems). The experiment is classed as cell-based. Also noted: host or cells: Tango CXCR4-bla U2OS cells. The method, then: In our effort to identify CXCR4 activators from the NIH Molecular Library Small Molecule Repository (MLSMR), we developed a primary screening assay to measure β-arrestin recruitment to the activated G-protein coupled receptor (GPCR) by a Florescence Resonance Energy Transfer (FRET) in U2OS cells, overexpressing the CXCR4 receptor engineered with a β-lactamase (bla) reporter system. CXCR4-bla cells plated in 1536 w were stimulated in the presence of 10 µM compound concentration. […] Using this approach, we successfully screened the NIH MLSMR of 370,620 compounds (Figure 1A,B) and identified 303 hits (hit rate = 0.08%). […] These compounds were graded according to activity and structure, resulting in 86 compounds that met the criteria as potential CXCR4 agonists for further characterization (Figure 1B). The workflow for high-throughput screening and this study is illustrated in Figure 1B.
Chemical stability, synthetic tractability, solubility and complete dose response and potency criteria led to the prioritization of the 5-aryl-2-cyclopropyl oxazole scaffold, represented by primary hit Compound 2 (Table 1). The early structure–activity relationship was established around the 5-aryl-2-cyclopropyl oxazole core with commercially available analogs with diverse substituents in the sulfonanilide ring of the scaffold. […] Keeping the 2-OMe substituent constant, we screened a small set of electron withdrawing and electron rich substituents at the 5-position of the anilide ring (entries 16–19). […] The analytical data for UCUF-728 is shown in Supplemental Figures S1–S4.
(Recruitment of arrestin is a read-out of receptor activation apart from second messengers.)

Another experiment deals with miR-15b. Description: miR-15b expression in human diabetic fibroblasts (real time qPCR). The experiment is classed as cell-based. The method, then:
An additional secondary screen was performed to further validate the activity of UCUF-728 as a selective CXCR4 receptor modulator. Human diabetic and non-diabetic fibroblasts were cultured with increasing concentrations of the compound. The cells were incubated for 24 h and then total cellular RNA was isolated to examine the ability of the compound to correct the abnormal expression of miR-15b, and miR-29a. We have shown that human diabetic skin has an increased miR-15b expression at the baseline compared to non-diabetic skin [7].
CEM-CCRF cells (ATCC CCL-119) were cultured in growth media consisting of RPMI 1640 (Corning; Corning NY, USA) supplemented with 10% Fetal Bovine Serum (Corning; Corning, NY, USA), and 100 IU penicillin, […] streptomycin sulfate (Corning; Corning, NY, USA). Cells were maintained in suspension and subcultured twice weekly to maintain cell densities between 0.8 × 10^6 cells/mL and 2.5 × 10^6 cells/mL to maintain exponential growth phase. […]
Total RNA was extracted with TRIzol reagent (Invitrogen, Carlsbad, CA, USA) according to the manufacturer’s established protocol. […] Quantitative PCR was performed on a BIO-RAD CFX96 according to the manufacturer’s instructions. Quantitative values of genes of interest are normalized based on U6. […]
On the technique in general: In qPCR the cycle at which signal appears reflects the starting amount.

For orientation: EC50 means the concentration giving half of the maximal effect. The low end stands for greater potency, the high end for weaker potency. For orientation: Emax means the size of the effect at its maximum, as opposed to the concentration needed.

The structures appear in SMILES notation.

Sequence of CXCR4 receptor (P61073 whole entry): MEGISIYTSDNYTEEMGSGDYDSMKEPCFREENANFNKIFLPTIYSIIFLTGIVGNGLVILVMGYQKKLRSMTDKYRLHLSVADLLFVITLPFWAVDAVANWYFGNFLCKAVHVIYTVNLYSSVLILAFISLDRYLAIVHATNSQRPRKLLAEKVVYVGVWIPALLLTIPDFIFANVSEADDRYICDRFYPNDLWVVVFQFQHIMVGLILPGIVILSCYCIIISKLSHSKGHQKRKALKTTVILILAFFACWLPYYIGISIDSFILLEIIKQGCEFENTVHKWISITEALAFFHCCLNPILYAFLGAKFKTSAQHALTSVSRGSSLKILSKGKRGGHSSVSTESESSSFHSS

As to `COc1ccc(OC)c(NS(=O)(=O)c2ccc(-c3cnc(C4CC4)o3)cc2)c1` [Compound 19], the “time of full closure” value in experiment [1] (Db mice, 8 mm wound, 10 µM intradermal at wounding, PBS 22 days) came out at 14 days. Besides, the wound surface area entry in experiment [1] (Db wounds, post-injury day 6, vs PBS) was “decrease in the wound surface area”. Moreover, the “reduction of wound closure time” value in experiment [1] (diabetic mice, vs PBS) is on record as 36%. In experiment [1] (diabetic wounds, 7 days, vs PBS), the “number of vessels (CD31 staining)” value is reported as “significant increase in the number of vessels”. For the same compound, the response on CXCR4 receptor was half-maximal at 1100 nM (EC50). On CXCR4 receptor (U2OS), this compound gave an Emax of 60%. In the experiment with miR-15b, the “lowest concentration with potent suppression of miR-15b expression” value was determined as 0.1 µM. Moreover, in the experiment on miR-15b (24 h), the miR-15b expression result is “decreased the expression of miR-15b”.
